Assays:
dog [1] = settings: Chronic toxicity, beagle, Oral, Capsule, dose end: 52 week, group: systemic
rat [2] = settings: Combined chronic toxicity/carcinogenicity, sprague dawley, Oral, Feed, dose end: 734 day, group: systemic
rat [3] = settings: Prenatal developmental toxicity study, sprague dawley, Oral, Feed, dose end: 20 GD
mouse = settings: Carcinogenicity, cd1, Oral, Feed, dose end: 87 week, group: systemic
rat [4] = settings: Developmental neurotoxicity range-finding study; sprague dawley; Oral; Feed; dose end: 22 PND; group: cannot be grouped; systemic / in life observation / clinical signs / tremors
dog [5] = settings: Subchronic oral toxicity in nonrodent, beagle, Capsule, dose end: 13 week
rat [6] = settings: Subchronic oral toxicity in rodents, sprague dawley, Feed, dose end: 90 day, group: systemic
rat [7] = settings: Prenatal developmental toxicity study, sprague dawley, Oral, Gavage/Intubation, dose end: 15 GD
rat [8] = settings: Sub-acute repeat dose toxicity, sprague dawley, Oral, Feed, dose end: 28 day, group: systemic
rat [9] = settings: Sub-acute repeat dose toxicity, sprague dawley, Oral, Feed, dose end: 28 day, group: systemic; remark: listed apart in the source
dog [10] = settings: Chronic toxicity, beagle, Oral, Capsule, dose end: 1 year, group: systemic
rabbit [11] = settings: Prenatal developmental toxicity study, new zealand white, Oral, Gavage/Intubation, dose end: 29 GD
dog [12] = settings: Sub-acute repeat dose toxicity; beagle; Oral; Capsule; dose end: 28 day; group: systemic; systemic / pathology microscopic / heart / lesion(s) (nos)
rabbit [13] = settings: Prenatal developmental toxicity study; new zealand white; Oral; Feed; dose end: 29 GD; group: developmental; developmental / developmental malformation / bone / absent + developmental / developmental malformation / bone / incomplete ossification + …
[14] = systemic / in life observation / clinical signs / tremors
[15] = systemic / in life observation / clinical signs / tremors + systemic / hematology / erythrocyte (rbc) count differential / erythrocyte (rbc…
[16] = group: developmental, developmental / developmental malformation / bone / unossified
[17] = group: maternal, systemic / in life observation / body weight / body weight gain + systemic / in life observation / clinical signs / hypersensitivity + …
[18] = systemic / pathology microscopic / testes / degeneration
[19] = group: maternal, reproductive / reproductive performance / estrous cycle / abnormal
[20] = group: systemic, systemic / in life observation / clinical signs / tremors + systemic / in life observation / body weight / body weight gain + systemic / in …
[21] = group: developmental, developmental / developmental malformation / ureter / hydroureter
[22] = group: maternal, systemic / in life observation / clinical signs / tremors
[23] = systemic / in life observation / body weight / body weight + systemic / in life observation / body weight / body weight gain + systemic / in…
[24] = systemic / in life observation / body weight / body weight gain
[25] = systemic / pathology microscopic / heart / lesion(s) (nos) + systemic / pathology microscopic / heart / fibrosis
[26] = group: developmental, developmental / developmental malformation / bone / absent + developmental / developmental malformation / bone / incomplete ossification + …
[27] = group: maternal, reproductive / reproductive performance / aborted / aborted + reproductive / reproductive performance / resorptions / resorptions + systemic…

Compound: Cc1c(COC(=O)[C@@H]2[C@H](/C=C(\Cl)C(F)(F)F)C2(C)C)cccc1-c1ccccc1 [Bifenthrin]
- LOAEL (dog [1]; [14]): 3 mg/kg/day
- LEL (dog [1]; systemic / in life observation / clinical signs / tremors + systemic / clinical chemistry / sodium / sodium): 3 mg/kg/day
- NEL (dog [1]; [15]): 1.5 mg/kg/day
- NOAEL (dog [1]; [15]): 1.5 mg/kg/day
- LOAEL (rat [2]; [14]): 6.1 mg/kg/day
- NOAEL (rat [2]; systemic / in life observation / clinical signs / tremors + systemic / in life observation / body weight / body weight + systemic / in life …): 3 mg/kg/day
- LEL (rat [2]; systemic / organ weight / kidney / relative to body weight + systemic / organ weight / liver / relative to body weight): 4.7 mg/kg/day
- NEL (rat [2]; systemic / organ weight / kidney / relative to body weight + systemic / organ weight / liver / relative to body weight + systemic / in life …): 2.3 mg/kg/day
- LEL (rat [3]; [16]): 16.3 mg/kg/day
- LOAEL (rat [3]; [16]): > 16.3 mg/kg/day
- NEL (rat [3]; [16]): 7.4 mg/kg/day
- NOAEL (rat [3]; [16]): ≥ 16.3 mg/kg/day
- LEL (rat [3]; [17]): 16.3 mg/kg/day
- LOAEL (rat [3]; [17]): 16.3 mg/kg/day
- NEL (rat [3]; [17]): 7.4 mg/kg/day
- NOAEL (rat [3]; [17]): 7.4 mg/kg/day
- LOAEL (mouse; [14]): 25.6 mg/kg/day
- NOAEL (mouse; systemic / in life observation / clinical signs / tremors + systemic / pathology microscopic / liver / adenoma/carcinoma combined + systemic…): 6.7 mg/kg/day
- LEL (mouse; [18]): 6.7 mg/kg/day
- NEL (mouse; [18]): < 6.7 mg/kg/day
- LEL (rat [4]): 9.3 mg/kg/day
- LOAEL (rat [4]): > 9.3 mg/kg/day
- NEL (rat [4]): 7.4 mg/kg/day
- NOAEL (rat [4]): ≥ 9.3 mg/kg/day
- LEL (dog [5]; [19]): 10 mg/kg/day
- LOAEL (dog [5]; [19]): > 20 mg/kg/day
- NEL (dog [5]; [19]): 5 mg/kg/day
- NOAEL (dog [5]; [19]): ≥ 20 mg/kg/day
- LOAEL (dog [5]; group: systemic, systemic / in life observation / clinical signs / tremors): 5 mg/kg/day
- NEL (dog [5]; [20]): 2.5 mg/kg/day
- NOAEL (dog [5]; [20]): 2.5 mg/kg/day
- LEL (dog [5]; group: systemic, systemic / in life observation / clinical signs / tremors + systemic / in life observation / clinical signs / ataxia): 5 mg/kg/day
- NEL (rat [6]; systemic / in life observation / body weight / body weight + systemic / in life observation / body weight / body weight gain): 17.2 mg/kg/day
- LOAEL (rat [6]; [14]): 7.5 mg/kg/day
- NOAEL (rat [6]; systemic / in life observation / clinical signs / tremors + systemic / clinical chemistry / potassium / potassium + systemic / clinical …): 3.8 mg/kg/day
- LEL (rat [7]; [21]): 2 mg/kg/day
- LOAEL (rat [7]; [21]): 2 mg/kg/day
- NEL (rat [7]; [21]): 1 mg/kg/day
- NOAEL (rat [7]; [21]): 1 mg/kg/day
- LEL (rat [7]; [22]): 2 mg/kg/day
- LOAEL (rat [7]; [22]): 2 mg/kg/day
- NEL (rat [7]; [22]): 1 mg/kg/day
- NOAEL (rat [7]; [22]): 1 mg/kg/day

Compound: Cn1cnc2c1c(=O)[nH]c(=O)n2C [Theobromine]
- LOAEL (rat [8]; [23]): > 912 mg/kg/day
- NOAEL (rat [8]; [23]): ≥ 912 mg/kg/day
- LEL (rat [8]; systemic / in life observation / body weight / body weight + systemic / in life observation / food consumption / food consumption): 389 mg/kg/day
- NEL (rat [8]; systemic / in life observation / body weight / body weight + systemic / in life observation / food consumption / food consumption + systemic…): 200 mg/kg/day
- LOAEL (rat [9]; [23]): > 492 mg/kg/day
- NOAEL (rat [9]; [23]): ≥ 492 mg/kg/day
- LEL (rat [9]; [24]): 94 mg/kg/day
- NEL (rat [9]; [24]): < 94 mg/kg/day
- LEL (dog [10]; systemic / pathology microscopic / heart / lesion(s) (nos)): 100 mg/kg/day
- LOAEL (dog [10]; [25]): > 150 mg/kg/day
- NOAEL (dog [10]; [25]): ≥ 150 mg/kg/day
- LEL (rabbit [11]; group: developmental, developmental / developmental malformation / bone / absent + developmental / developmental malformation / bone / incomplete ossification): 75 mg/kg/day
- LOAEL (rabbit [11]; [26]): > 200 mg/kg/day
- NEL (rabbit [11]; [26]): 25 mg/kg/day
- NOAEL (rabbit [11]; [26]): ≥ 200 mg/kg/day
- LOAEL (rabbit [11]; [27]): > 200 mg/kg/day
- NEL (rabbit [11]; [27]): 25 mg/kg/day
- NOAEL (rabbit [11]; [27]): ≥ 200 mg/kg/day
- LEL (rabbit [11]; group: maternal, reproductive / reproductive performance / resorptions / resorptions + reproductive / offspring survival early / dead fetuses / dead fetuses): 75 mg/kg/day
- LEL (dog [12]): 100 mg/kg/day
- LOAEL (dog [12]): > 150 mg/kg/day
- NEL (dog [12]): 75 mg/kg/day
- NOAEL (dog [12]): ≥ 150 mg/kg/day
- LEL (rabbit [13]): 41 mg/kg/day
- LOAEL (rabbit [13]): > 63 mg/kg/day
- NEL (rabbit [13]): 21 mg/kg/day
- NOAEL (rabbit [13]): ≥ 63 mg/kg/day
